Results on two compounds are retold here after ChEMBL document CHEMBL3098019, “Structure-based screening for the discovery of new carbonic anhydrase VII inhibitors” (Eur J Med Chem, 2014).

The target of one assay is Carbonic anhydrase 14 (Homo sapiens, UniProt Q9ULX7). The experiment in a line: Inhibition of human recombinant carbonic anhydrase 14 preincubated for 15 mins by stopped flow CO2 hydration assay.
Another assay concerns the target Carbonic anhydrase 9 (Homo sapiens, UniProt Q16790).
In another assay the target is Carbonic anhydrase 2 (Homo sapiens, UniProt P00918). Nature of the assay: Inhibition of human recombinant carbonic anhydrase 2 preincubated for 15 mins by stopped flow CO2 hydration assay.
In the next assay the target is Carbonic anhydrase 1 (Homo sapiens, UniProt P00915). The experiment in a line: Inhibition of human recombinant carbonic anhydrase 1 preincubated for 15 mins by stopped flow CO2 hydration assay.
Chain of Carbonic anhydrase 1 (P00915 whole entry): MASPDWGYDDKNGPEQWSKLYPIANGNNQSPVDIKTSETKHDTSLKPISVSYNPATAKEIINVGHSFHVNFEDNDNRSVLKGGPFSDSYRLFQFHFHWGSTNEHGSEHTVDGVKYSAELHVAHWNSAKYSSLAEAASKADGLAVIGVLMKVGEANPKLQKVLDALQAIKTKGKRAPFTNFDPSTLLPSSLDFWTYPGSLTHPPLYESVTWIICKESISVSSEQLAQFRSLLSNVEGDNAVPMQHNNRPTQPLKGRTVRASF

Chain of Carbonic anhydrase 14 (Q9ULX7 whole entry): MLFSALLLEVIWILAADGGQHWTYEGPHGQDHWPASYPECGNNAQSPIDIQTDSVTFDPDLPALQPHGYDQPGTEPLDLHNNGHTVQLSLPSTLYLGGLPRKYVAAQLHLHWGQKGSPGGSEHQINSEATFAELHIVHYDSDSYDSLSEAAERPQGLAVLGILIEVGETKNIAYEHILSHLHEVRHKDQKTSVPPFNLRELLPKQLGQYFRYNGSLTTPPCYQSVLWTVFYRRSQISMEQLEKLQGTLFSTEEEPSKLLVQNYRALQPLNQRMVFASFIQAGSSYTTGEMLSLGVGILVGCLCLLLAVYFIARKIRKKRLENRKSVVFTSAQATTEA
Description for Carbonic anhydrase 9: Inhibition of human catalytic domain of carbonic anhydrase 9 preincubated for 15 mins by stopped flow CO2 hydration assay

Take `NS(=O)(=O)Cc1ccc(NC(=O)C2CC=CCC2)cc1` (configuration not stated): the Ki is 7.6 nM at Carbonic anhydrase 14, 53.2 nM at Carbonic anhydrase 9, 73.2 nM at Carbonic anhydrase 2 and 8.9 nM on Carbonic anhydrase 1.

Regarding `NS(=O)(=O)Cc1ccc(NS(=O)(=O)c2ccc(Br)cc2Cl)cc1`, the values for the Ki on Carbonic anhydrase 14, on Carbonic anhydrase 2 and on Carbonic anhydrase 1 were 19.4 nM, 6.3 nM and 8.6 nM, respectively.

The Ki is the equilibrium dissociation constant of an inhibitor or competing ligand from its target.
